Measurements taken from patent US9883691B2, “Food and beverage products containing 1,3-propanediol and methods of modifying flavor release using 1,3-propanediol” (Kraft Foods Group Brands LLC, priority 2012, dated 2018).

What was measured:
Format in all cases: physicochemical
[1] = PTR-MS headspace release with various non-aqueous liquids (diols) at 0.05:100 (Example 3); conditions: ratio 0.05:100; for PTR-MS headspace release in 1,3-butanediol: non-aqueous liquid 1,3-butanediol; for PTR-MS headspace release in 1,3-butanediol / PTR-MS headspace release in 1,3-propanediol / PTR-MS headspace release in 1,4-butanediol / PTR-MS headspace release in 1,7-heptanediol / PTR-MS headspace release in Propylene glycol: diluted in water; for PTR-MS headspace release in 1,3-propanediol: non-aqueous liquid 1,3-propanediol; for PTR-MS headspace release in 1,4-butanediol: non-aqueous liquid 1,4-butanediol; for PTR-MS headspace release in 1,7-heptanediol: non-aqueous liquid 1,7-heptanediol; for PTR-MS headspace release in Propylene glycol: non-aqueous liquid propylene glycol
Experimental: […]. The flavoring was then diluted in water for analysis. The final concentration of each compound was held constant at 8 ppm except furfuryl mercaptan was included at 1.6 ppm to maintain a constant flavor level in the resulting beverage while the non-aqueous liquid varied but the ratio of each compound to non-aqueous liquid was held constant at 0.05:100. A variety of non-aqueous liquids were evaluated, including 1,4-butandiol; 1,7-heptandiol; 1,3-butandiol, propylene glycol, and 1,3-propanediol.
Samples were analyzed by PTR-MS as described in Example 1.
Percent suppression was calculated by the following formula: (I1-3-diol−Ialternate diol)/Ialternate diol×100.

[2] = PTR-MS headspace release at various flavor compound to 1,3-propanediol or PG ratios (Example 2); conditions: for effect of 1,3-propanediol on release: flavor/1,3-propanediol ratio of 0.05:100; for release suppressed in the presence of 1,3-propanediol: 10% cut-off for significant difference, relative to PG; for Percent Suppression by 1,3-propanediol: (IZ−IPG)/IPG×100
Experimental: The compounds listed below in Table 3 were added together to provide a liquid flavoring to analyze the role, if any, of the amount of 1,3-propanediol on flavor release. […] The amount of each flavor compound in the beverage was held constant at 8 ppm except furfuryl mercaptan was included at 1.6 ppm while the amount of propylene glycol or 1,3-propanediol varied.
The percent suppression was calculated using the following formula: (IZ−IPG)/IPG×100, where I is peak height, “Z” is 1,3-propanediol and “PG” is propylene glycol.

[3] = PTR-MS real-time headspace release, watermelon flavor model in water (Example 1); design: Sample A (PG) Mean / Sample B (1,3-propanediol) Mean: unit not given here; conditions: for Sample B (1,3-propanediol) Mean / Sample A (PG) Mean: PTR-MS headspace, diluted in water, 90 minutes equilibration, mean of three; for Sample B (1,3-propanediol) Mean: watermelon flavor concentrate in 1,3-propanediol; for Sample A (PG) Mean: watermelon flavor concentrate in propylene glycol; for Percent Release Difference: Sample B (1,3-propanediol) relative to Sample A (PG)
Experimental: The impact of 1,3-propanediol on the release of flavor compounds can be analyzed by Proton Transfer Reaction Mass Spectrometry (PTR-MS; model TOF-8000 from Ionicon Analytik Inc.), where real-time headspace release of volatiles is measured. A sampling apparatus is needed in conjunction with the PTR-MS inlet to prevent variations caused by headspace kinetics. By one exemplary approach, the sampling apparatus includes a 4 ounce sample vessel equipped with a 2-hole lid which may be sealed by an adhesive film to allow equilibration. […]. The holes are equal sized (˜2 mm diameter) and match the outer diameter of the PTR-MS inlet line. The flow of the dilution gas into the vessel is regulated by the vacuum and proportional valve of the PTR-MS inlet system. The sample vessel has a base diameter of 47 mm and is 45 mm high, of which 8 mm of height is occupied by the sample in the vessel in these experiments. The 2 holes in the lid are equidistant from the edge of the vessel (˜20 mm) and about 30 mm from each other. The PTR-MS inlet is braced by clamps in a fixed position vertically above the laboratory bench (˜55 mm) and a silicone rubber depth gauge is affixed to the PTR-MS inlet tubing and set at 18 mm. The PTR-MS inlet is thus consistently oriented in a vertical position 18 mm below the inside lid of the vessel and 19 mm above the sample in the vessel. The sample vessel is then held in place during sampling according to the depth gauge on the inlet line and the vessel is subsequently supported on the bench by a 10 mm plastic spacer.
15 grams of the sample to be tested (e.g., food or beverage product containing 1,3-propanediol) are added to the vessel. The vessel is sealed and allowed to equilibrate at room temperature (˜22° C.) for 90 minutes. At the time of sampling, the seal is removed from both the sampling hole and the dilution gas hole in the lid and the vessel is immediately affixed to the PTR-MS inlet via the sampling hole. The real-time released flavor is measured from the headspace of the sample vessel for two minutes (according to the conditions listed in Table 1 below). A comparative sample is prepared that is otherwise identical to the test sample but contains propylene glycol or water instead of 1,3-propanediol. The comparative sample is then analyzed in triplicate by PTR-MS using the above-described procedure. The data can be analyzed using PTR-MS Viewer, Version 3.0.0.101 (Ionicon Analytik G.m.b.H). The point of maximum intensity for each compound of interest can be determined and recorded according to the PTR-MS Viewer software. The maximum intensity in counts over the timescale for each compound of interest can be used for data analysis as it reflects the static equilibrium headspace concentration in the system at the moment of seal removal. Due to the necessity of a dilution gas, the volatile concentration decreases over time as the compounds of interest re-equilibrate to a state of dynamic equilibrium in the headspace.
[…]. Sample A was prepared with 20 grams watermelon flavor concentrate and 80 grams propylene glycol. Sample B was prepared with 20 grams watermelon flavor concentrate and 80 grams 1,3-propanediol. Each of the samples was further diluted by adding 0.08 grams of each diluted concentrate to 99.92 grams water to provide a flavor water solution.
The diluted samples were analyzed by Proton Transfer Reaction Mass Spectrometry (PTR-MS; model TOF-8000 from Ionicon Analytik Inc.) for real-time headspace release volatiles measurement. Samples were analyzed in triplicate. […]. […].

[4] = PTR-MS headspace release in neat solvent, solvent/solvent experiment (Example 5); design: key to Release Differences: “Z” indicates that 1,3-propanediol had higher equilibrium maximum (meaning more of the flavor was released in 1,3-propanediol); “P” indicates that propylene glycol had higher equilibrium maximum; “-” indicates no statistical difference (95% significance) between the two samples; conditions: 1.5 hrs equilibration; for Release Differences: 1,3-propanediol versus propylene glycol as sole solvent, 95% significance
Experimental: […]. Then the head space was analyzed as described above.
0.86 grams of the concentrate was added to 100 grams of either propylene glycol or 1,3-propanediol to provide a 1,3-propanediol diluted concentrate or propylene glycol diluted concentrate. The diluted concentrates were then further diluted as outlined in Table 10 below.
A 15 gram sample was weighed into a 4 oz vessel and analyzed at 1.5 hrs. of equilibration time as described in the method of Example 4.

[5] = ratio 0.005:100, negative = suppressed vs PG

OCCCCCCCO [1,7-heptandiol, reference compound]
flavor release with the non-aqueous liquid relative to comparative diol [1]: faster release than propylene glycol

CCCCCCCCCC(=O)O [Decanoic acid]
PTR-MS headspace release in 1,3-butanediol [1]: 0.6
PTR-MS headspace release in 1,3-propanediol [1]: 0.20
PTR-MS headspace release in 1,4-butanediol [1]: 1.4
PTR-MS headspace release in 1,7-heptanediol [1]: 1.0
PTR-MS headspace release in Propylene glycol [1]: 0.25
effect of 1,3-propanediol on release [2]: minimal effect

COc1cc(C=O)ccc1O [Vanillin]
Sample B (1,3-propanediol) Mean [3]: 0.05
Sample A (PG) Mean [3]: 0.05
Percent Release Difference [3]: 3.4%

O=CCc1ccccc1 [Phenyl acetaldehyde]
Sample B (1,3-propanediol) Mean [3]: 0.78
Sample A (PG) Mean [3]: 0.80
Percent Release Difference [3]: −2.5%

CCC(C)COC(C)=O (stereo not shown) [2-methylbutyl acetate]
Sample B (1,3-propanediol) Mean [3]: 4.27
Sample A (PG) Mean [3]: 5.30
Percent Release Difference [3]: −19.5%

CCCCCCO [Hexanol]
PTR-MS headspace release in 1,3-butanediol [1]: 0.3
PTR-MS headspace release in 1,3-propanediol [1]: 0.20
PTR-MS headspace release in 1,4-butanediol [1]: 0.5
PTR-MS headspace release in 1,7-heptanediol [1]: 0.3
PTR-MS headspace release in Propylene glycol [1]: 0.37
Percent suppression by 1,3-butanediol relative to 1,4-butanediol [1]: −50.0%
release suppressed in the presence of 1,3-propanediol [2]: suppressed
Percent Suppression by 1,3-propanediol [2, 5]: −3.6%
Percent Suppression by 1,3-propanediol ([2]; ratio 0.05:100): −45.9%
Percent Suppression by 1,3-propanediol ([2]; ratio 5:100): −9.8%
Percent Suppression by 1,3-propanediol ([2]; ratio 15:100): −20.0%
Release Differences [4]: Z
release in 1,3-propanediol versus propylene glycol, solvent/solvent [4]: released faster in 1,3-propanediol

CC(C=O)Cc1ccc(C(C)C)cc1 (stereo not shown) [Cyclamen aldehyde]
Sample B (1,3-propanediol) Mean [3]: 0.36
Sample A (PG) Mean [3]: 0.40
Percent Release Difference [3]: −10.0%

CC(C)CC=O [Isovaleraldehyde]
PTR-MS headspace release in 1,3-butanediol [1]: 40.9
PTR-MS headspace release in 1,3-propanediol [1]: 12.35
PTR-MS headspace release in 1,4-butanediol [1]: 62.5
PTR-MS headspace release in 1,7-heptanediol [1]: 63.5
PTR-MS headspace release in Propylene glycol [1]: 12.51
Percent suppression by 1,3-butanediol relative to 1,4-butanediol [1]: −53.0%
Percent Suppression by 1,3-propanediol [2, 5]: 3.7%
Percent Suppression by 1,3-propanediol ([2]; ratio 0.05:100): −1.3%
Percent Suppression by 1,3-propanediol ([2]; ratio 5:100): −22.2%
Percent Suppression by 1,3-propanediol ([2]; ratio 15:100): −2.6%

C/C=C\C(=O)C1C(C)=CCCC1(C)C (stereo not drawn) [Alpha damascone]
Sample B (1,3-propanediol) Mean [3]: 0.57
Sample A (PG) Mean [3]: 0.82
Percent Release Difference [3]: −30.6%

CC(=O)CCc1ccc(O)cc1 [Raspberry ketone]
Sample B (1,3-propanediol) Mean [3]: 0.04
Sample A (PG) Mean [3]: 0.07
Percent Release Difference [3]: −48.1%

CCCCOC(=O)CCC [Butyl butyrate]
PTR-MS headspace release in 1,3-butanediol [1]: 27.9
PTR-MS headspace release in 1,3-propanediol [1]: 13.57
PTR-MS headspace release in 1,4-butanediol [1]: 49.4
PTR-MS headspace release in 1,7-heptanediol [1]: 46.4
PTR-MS headspace release in Propylene glycol [1]: 10.50
Percent suppression by 1,3-butanediol relative to 1,4-butanediol [1]: −77.2%
Percent Suppression by 1,3-propanediol [2, 5]: −3.3%
Percent Suppression by 1,3-propanediol ([2]; ratio 0.05:100): 29.2%
Percent Suppression by 1,3-propanediol ([2]; ratio 5:100): −20.5%
Percent Suppression by 1,3-propanediol ([2]; ratio 15:100): −8.2%
Release Differences [4]: Z

CCOC(C)=O [Ethyl acetate]
Sample B (1,3-propanediol) Mean [3]: 1410
Sample A (PG) Mean [3]: 1797
Percent Release Difference [3]: −21.5%

CCc1occc(=O)c1O [Ethyl maltol]
Sample B (1,3-propanediol) Mean [3]: 1.25
Sample A (PG) Mean [3]: 1.25
Percent Release Difference [3]: 0.0%

CCO [Ethanol]
PTR-MS headspace release in 1,3-butanediol [1]: 20.7
PTR-MS headspace release in 1,3-propanediol [1]: 18.60
PTR-MS headspace release in 1,4-butanediol [1]: 27.5
PTR-MS headspace release in 1,7-heptanediol [1]: 24.5
PTR-MS headspace release in Propylene glycol [1]: 28.52
release suppressed in the presence of 1,3-propanediol [2]: suppressed
effect of 1,3-propanediol on release [2]: significant suppression effect
Percent Suppression by 1,3-propanediol [2, 5]: 11.9%
Percent Suppression by 1,3-propanediol ([2]; ratio 0.05:100): −34.8%
Percent Suppression by 1,3-propanediol ([2]; ratio 5:100): −12.1%
Percent Suppression by 1,3-propanediol ([2]; ratio 15:100): −0.9%
Sample B (1,3-propanediol) Mean [3]: 24.50
Sample A (PG) Mean [3]: 22.17
Percent Release Difference [3]: 10.5%

CCCC(=O)O [Butyric acid]
PTR-MS headspace release in 1,3-butanediol [1]: 91.7
PTR-MS headspace release in 1,3-propanediol [1]: 30.25
PTR-MS headspace release in 1,4-butanediol [1]: 143.8
PTR-MS headspace release in 1,7-heptanediol [1]: 140.0
PTR-MS headspace release in Propylene glycol [1]: 28.00
Percent suppression by 1,3-butanediol relative to 1,4-butanediol [1]: −56.8%
effect of 1,3-propanediol on release [2]: minimal effect
Percent Suppression by 1,3-propanediol [2, 5]: 7.5%
Percent Suppression by 1,3-propanediol ([2]; ratio 0.05:100): 8.0%
Percent Suppression by 1,3-propanediol ([2]; ratio 5:100): −18.4%
Percent Suppression by 1,3-propanediol ([2]; ratio 15:100): −6.0%

OCCCO [1,3-propanediol]
flavor retention compared to use of propylene glycol ([3]; watermelon flavor model, Table 2): generally resulted in increased flavor retention

CCCCCCC(C=O)=Cc1ccccc1 [Hexyl cinnamic aldehyde]
Sample B (1,3-propanediol) Mean [3]: 1.32
Sample A (PG) Mean [3]: 0.95
Percent Release Difference [3]: 38.8%

CCC/C=C/C(=O)O [Trans-2-hexenoic acid]
Sample B (1,3-propanediol) Mean [3]: 0.86
Sample A (PG) Mean [3]: 1.06
Percent Release Difference [3]: −18.3%
